This note sets out measurements from US8927535B2, “Cyclopropyl-fused-1,3-thiazepines as BACE1 and/or BACE2 inhibitors” (Hoffman-La Roche Inc., priority 2011, dated 2015).

Usually IC50 stands for the midpoint of a concentration-inhibition curve. Lower therefore signals inhibition by little substance.

This test has as its target T1, BACE2 (Rattus norvegicus, UniProt Q6IE75).
T1 construct: endogenous cellular BACE2 in the Ins1e rat cell line; endogenous in cells; host or cells: INS-TMEM27 (INS1e-derived rat cell line with doxycycline-inducible full-length hTMEM27)
T1 sequence (Q6IE75 63-514): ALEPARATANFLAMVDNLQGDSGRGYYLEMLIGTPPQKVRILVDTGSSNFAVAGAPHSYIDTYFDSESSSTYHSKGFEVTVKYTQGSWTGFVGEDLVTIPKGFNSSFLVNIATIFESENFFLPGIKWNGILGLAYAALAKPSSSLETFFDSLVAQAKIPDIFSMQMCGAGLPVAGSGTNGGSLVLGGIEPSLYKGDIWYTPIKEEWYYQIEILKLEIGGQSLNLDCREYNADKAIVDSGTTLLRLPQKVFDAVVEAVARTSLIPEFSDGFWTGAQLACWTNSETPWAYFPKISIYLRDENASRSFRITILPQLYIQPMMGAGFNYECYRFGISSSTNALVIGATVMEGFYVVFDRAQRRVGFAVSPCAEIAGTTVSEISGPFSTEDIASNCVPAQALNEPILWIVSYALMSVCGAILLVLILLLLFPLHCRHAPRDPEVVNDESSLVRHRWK
Description: Assay for BACE inhibition by measuring cellular TMEM27 cleavage. The format is cell-based. The following applies: INS-TMEM27 (INS1e-derived) cells, endogenous BACE2, shed human TMEM27 in medium by ELISA. An excerpt: Assay for BACE Inhibition by Measuring Cellular TMEM27 Cleavage:
The assay uses the principle of inhibition of human TMEM27 cleavage by endogenous cellular BACE2 in the Ins1e rat cell line and shedding from the cell surface into the culture medium, followed by detection in an ELISA assay. Inhibition of BACE2 prevents the cleavage and shedding in a dose-dependent manner.
The stable cell line “INS-TMEM27” represents an INS1e-derived cell line with inducible expression (using the TetOn system) of full-length hTMEM27 in a doxycycline-dependent manner.
INS-TMEM27 cells are seeded in 96-well plates. After 2 days in culture, BACE2 inhibitor is added in a range of concentrations as required by the assay and after a further two hours, doxycycline is added to a final concentration of 500 ng/ml. The cells are incubated for a further 46 hours and the supernatant harvested for detection of shed TMEM27.
An ELISA assay (using a pair of mouse anti-human-TMEM27 antibodies, raised against the extracellular domain of TMEM27) is used for detection of TMEM27 in the culture medium. An EC50 for BACE2 inhibition is calculated using the ELISA readout for each inhibitor concentration with standard curve-fitting software such as XLFit for the Excel spreadsheet program.
On the technique in general: An ELISA detects its analyte on a solid surface through an enzyme-linked reagent.

Take `NC1=N[C@@]2(c3cc(NC(=O)c4ccc(Cl)cn4)ccc3Cl)C[C@H]2CCS1` (racemic) [Example 4, N-(3-((1SR,7SR)-3-amino-4-thia-2-azabicyclo[5.1.0]oct-2-en-1-yl)-4-chlorophenyl)-5-chloropicolinamide]: the IC50 amounted to 690 nM.
